# Data: patent US9994528B2, “Certain amino-pyridines and amino-triazines, compositions thereof, and methods for their use” (Cytokinetics, Inc., priority 2010, dated 2018)
# Tested on: rabbit skeletal myofibrils (approximately 90% fast fibers)
# Assay: Activation of fast skeletal myofibrils (PUMA coupled-enzyme ATPase assay)
# Assay type: biochemical
# Settings: AC1.4 = concentration at which the compound increased the enzymatic activity by 40%; myofibril suspension at calcium level pCa25; PM12 buffer pH 6.8
# In short: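 Fast skeletal myofibrils from rabbit psoas muscle (roughly 90% fast fibers) were homogenized, washed with Triton X-100 to strip membranes, and frozen in 10% sucrose at −80° C. Their calcium-regulated ATPase activity was measured at pCa25 in PM12 buffer (12 mM Pipes, 2 mM MgCl2, 1 mM DTT, pH 6.8). A pyruvate kinase/lactate dehydrogenase system coupled ADP regeneration to NADH oxidation, read at 340 nm.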
row,Mean AC1.4,Compound
1,B (B=1-10 uM),"CNC(=O)c1ccc(F)c(-c2cnc(NCC3(c4ncccc4F)CCC3)nn2)c1 [{4-fluoro-3-[3-({[(3-fluoro(2-pyridyl))cyclobutyl]methyl}amino)(1,2,4-triazin-6-yl)]phenyl}-N-methylcarboxamide]"
2,D (D=>20 uM),"CC(C)(Nc1ncc(-c2ncc(CN)s2)nn1)c1ncccc1Cl [{6-[5-(aminomethyl)(1,3-thiazol-2-yl)](1,2,4-triazin-3-yl)}[1-(3-chloro(2-pyridyl))-isopropyl]amine]"
3,B (B=1-10 uM),"NCc1cnc(-c2cnc(NC[C@]3(c4ncccc4F)C[C@H](F)C3)nn2)s1 [{6-[5-(aminomethyl)(1,3-thiazol-2-yl)](1,2,4-triazin-3-yl)}{[3-fluoro-1-(3-fluoro(2-pyridyl))cyclobutyl]methyl}amine]"
4,D (D=>20 uM),"CC(C)(Nc1ncc(-c2cc(CN)ccc2F)nn1)c1ncccc1F [{6-[5-(aminomethyl-2-fluorophenyl](1,2,4-triazin-3-yl)}[1-(3-fluoro(2-pyridyl))-isopropyl]amine]"
